ChEMBL document CHEMBL4825729, “Modulators of immunoregulatory exonucleases PLD3 and PLD4 identified by high-throughput screen” (Bioorg Med Chem Lett, 2021)

How the values were obtained:
[1] = molecular target: T1, 5'-3' exonuclease PLD3 (Homo sapiens) (UniProt Q8IV08); assay: Mixed type inhibition of PLD3 (unknown origin) assessed as Km using varying concentration 3'-dT-MUP as substrate by fluorescence-based screening assay
T1 sequence (whole entry): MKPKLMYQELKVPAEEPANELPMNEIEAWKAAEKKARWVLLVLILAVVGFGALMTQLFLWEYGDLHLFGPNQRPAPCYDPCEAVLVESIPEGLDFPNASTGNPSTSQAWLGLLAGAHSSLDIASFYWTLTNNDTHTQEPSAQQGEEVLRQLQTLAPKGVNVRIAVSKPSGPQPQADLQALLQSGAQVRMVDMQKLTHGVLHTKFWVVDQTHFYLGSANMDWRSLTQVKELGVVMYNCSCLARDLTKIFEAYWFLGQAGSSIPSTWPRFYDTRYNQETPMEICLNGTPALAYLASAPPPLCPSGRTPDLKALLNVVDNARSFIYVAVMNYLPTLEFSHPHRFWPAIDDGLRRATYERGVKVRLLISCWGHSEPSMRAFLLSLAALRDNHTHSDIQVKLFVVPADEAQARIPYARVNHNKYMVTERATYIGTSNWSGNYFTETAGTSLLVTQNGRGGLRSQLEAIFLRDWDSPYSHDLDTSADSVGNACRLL

5'-3' exonuclease PLD4 [2] = molecular target: T2, 5'-3' exonuclease PLD4 (Homo sapiens, UniProt Q96BZ4); assay: Inhibition of PLD4 (unknown origin) using 3'-dT-nNPP as substrate by fluorescence-based screening assay
T2 sequence (Q96BZ4 whole entry): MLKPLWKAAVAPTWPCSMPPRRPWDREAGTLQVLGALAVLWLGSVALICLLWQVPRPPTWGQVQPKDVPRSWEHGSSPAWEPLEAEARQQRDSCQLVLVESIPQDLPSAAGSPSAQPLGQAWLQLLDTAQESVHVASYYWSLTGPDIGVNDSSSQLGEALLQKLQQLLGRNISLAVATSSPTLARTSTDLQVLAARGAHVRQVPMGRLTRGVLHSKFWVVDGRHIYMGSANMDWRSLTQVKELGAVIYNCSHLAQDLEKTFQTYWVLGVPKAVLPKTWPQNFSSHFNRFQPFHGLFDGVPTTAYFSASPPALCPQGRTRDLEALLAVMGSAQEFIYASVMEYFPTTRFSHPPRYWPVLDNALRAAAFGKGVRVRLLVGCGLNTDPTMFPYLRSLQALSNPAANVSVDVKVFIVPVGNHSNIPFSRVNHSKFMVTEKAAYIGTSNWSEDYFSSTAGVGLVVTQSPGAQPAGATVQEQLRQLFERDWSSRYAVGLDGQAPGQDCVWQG

5'-3' exonuclease PLD4 [3] = molecular target: T2, 5'-3' exonuclease PLD4; assay: Inhibition of PLD4 (unknown origin) using 3'-dT-MUP as substrate by fluorescence-based screening assay
[4] = molecular target: T3, 5'-3' exonuclease PLD4 (Homo sapiens) (UniProt Q96BZ4); assay: Competitive inhibition of PLD4 (unknown origin) assessed as Km using varying concentration 3'-dT-MUP as substrate by fluorescence-based screening assay
T3 sequence (whole entry): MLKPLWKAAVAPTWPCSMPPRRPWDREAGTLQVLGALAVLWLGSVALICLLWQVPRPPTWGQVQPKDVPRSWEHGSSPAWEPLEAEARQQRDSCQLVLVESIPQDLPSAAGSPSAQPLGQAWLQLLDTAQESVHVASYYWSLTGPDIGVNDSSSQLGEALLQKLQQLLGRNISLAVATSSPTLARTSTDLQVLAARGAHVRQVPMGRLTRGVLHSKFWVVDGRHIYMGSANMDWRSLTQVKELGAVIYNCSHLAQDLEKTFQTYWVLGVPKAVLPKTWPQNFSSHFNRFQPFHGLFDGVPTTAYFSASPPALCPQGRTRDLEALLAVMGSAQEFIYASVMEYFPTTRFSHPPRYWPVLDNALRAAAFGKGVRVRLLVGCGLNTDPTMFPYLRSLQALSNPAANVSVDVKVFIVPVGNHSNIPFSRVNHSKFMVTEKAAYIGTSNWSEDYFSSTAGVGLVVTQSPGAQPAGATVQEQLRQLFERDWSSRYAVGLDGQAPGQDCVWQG

[5] = molecular target: T3, 5'-3' exonuclease PLD4 (Homo sapiens); assay: Competitive inhibition of PLD4 (unknown origin) assessed as binding constant using varying concentration 3'-dT-MUP as substrate by fluorescence-based screening assay
5'-3' exonuclease PLD3 [6] = molecular target: T4, 5'-3' exonuclease PLD3 (Homo sapiens, UniProt Q8IV08); assay: Inhibition of PLD3 (unknown origin) using 3'-dT-MUP as substrate by fluorescence-based screening assay
T4 sequence (Q8IV08 whole entry): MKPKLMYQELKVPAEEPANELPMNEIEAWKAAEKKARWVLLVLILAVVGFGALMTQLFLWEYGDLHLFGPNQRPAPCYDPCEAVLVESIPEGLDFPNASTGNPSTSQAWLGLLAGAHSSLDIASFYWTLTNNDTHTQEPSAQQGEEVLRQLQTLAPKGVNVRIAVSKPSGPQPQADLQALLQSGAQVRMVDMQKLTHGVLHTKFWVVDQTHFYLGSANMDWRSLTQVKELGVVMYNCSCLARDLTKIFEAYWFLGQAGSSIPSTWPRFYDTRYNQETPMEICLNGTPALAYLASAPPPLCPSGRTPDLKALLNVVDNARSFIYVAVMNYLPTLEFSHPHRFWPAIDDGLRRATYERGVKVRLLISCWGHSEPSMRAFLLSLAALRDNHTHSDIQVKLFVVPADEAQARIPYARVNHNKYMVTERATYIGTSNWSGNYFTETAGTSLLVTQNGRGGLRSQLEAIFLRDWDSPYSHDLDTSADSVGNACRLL

5'-3' exonuclease PLD3 [7] = molecular target: T4, 5'-3' exonuclease PLD3; assay: Inhibition of PLD3 (unknown origin) using 3'-dT-nNPP as substrate by fluorescence-based screening assay
[8] = molecular target: T1, 5'-3' exonuclease PLD3 (Homo sapiens); assay: Mixed type inhibition of PLD3 (unknown origin) assessed as binding constant using varying concentration 3'-dT-MUP as substrate by fluorescence-based screening assay

## Cc1cc(C)cc(N2CCn3c2nc2c3c(=O)n(CC(=O)O)c(=N)n2C)c1
[1]
  INH: 14.9 µM
5'-3' exonuclease PLD4 [2]
  IC50: 19 µM
5'-3' exonuclease PLD4 [3]
  IC50: 14.7 µM
[4]
  INH: 64.5 µM
[5]
  INH: 32.4 µM
5'-3' exonuclease PLD3 [6]
  IC50: 39.6 µM
5'-3' exonuclease PLD3 [7]
  IC50: 127 µM
[8]
  INH: 28.9 µM

## Cc1ccc(Cn2c(SCC(=O)O)nc3c2c(=O)n(C)c(=O)n3C)cc1
[1]
  INH: 13.6 µM
5'-3' exonuclease PLD4 [2]
  IC50: 128 µM
5'-3' exonuclease PLD4 [3]
  IC50: 142 µM
5'-3' exonuclease PLD3 [6]
  IC50: 13 µM
5'-3' exonuclease PLD3 [7]
  IC50: 8.9 µM
[8]
  INH: 6.2 µM
